Test results published in publication PMC5291098, “Molecular mutagenesis of ppGpp: turning a RelA activator into an inhibitor” (Scientific Reports, 2017).
“Also recorded” adds a separate entry of the source.

Test system: T1, RelA binding to 70S initiation complexes
T1 construct: made in house
Assay: Spin down assay of RelA binding to 70S initiation complexes
Parameters: species or system Escherichia coli
Settings: 500 μM compound; 2 μM RelA, 1 μM 70S IC programmed with mRNA(MF), with or without tRNAPhe
Description: Figure 4 Functional studies of DR-M014 and DR-4250 with programmed ribosomal complexes. (a,b) Inhibition of RelA activated by starved ribosomal complexes containing deacylated A-site tRNA^Phe. The reaction mixture contained 30 nM RelA, 0.5 μM 70S, 2 μM tRNA^Phe, 2 μM tRNAi^Met, 2 μM mRNA(MF), 100 μM ppGpp, 0.3 mM [^3H] GDP and 1 mM ATP. The experiments were performed in HEPES:Polymix buffer with 5 mM Mg^2+. Error bars represent standard deviations of linear regression estimates, each experiment was performed at least three times. […] Reaction mixture containing combinations of 2 μM RelA, 1 μM 70S initiation complexes programmed with mRNA(MF), 3 μM deacylated tRNA^Phe and test compounds at 500 μM was preincubated at 37 °C for 15 minutes prior to loading 50 μl samples on top of a 50 μl 30% sucrose cushion. After centrifugation for 25 minutes (70,000 r.p.m. at 12 °C) the supernatants were quickly aspirated, the pellets resuspended in 20 μl of SDS loading buffer, and the proteins resolved on 10% SDS-PAGE gel.
The ppGpp-analogues reported earlier promote RelA association with 70S ribosome[25][26] and are, therefore, promising tools for generating stable 70S:RelA complexes for structural investigations. […]
3', 300 μM 3H-GDP, 100 μM ppGpp was pre-incubated at 37° C for 2 min and then reaction started by addition of 1 mM ATP, time points (5 μl) taken, quenched with formic acid and analyzed by TLC. […]

Nc1nc2c(ncn2C2CCN(C(=O)P(=O)(O)O)CC2)c(=O)[nH]1 [DR-M014]
Effect on RelA binding to 70S initiation complexes (in words): promote RelA binding to 70S initiation complexes; also recorded: significantly promotes RelA binding
